These results are taken from PMC8497620, “Structure and inhibition of Cryptococcus neoformans sterylglucosidase to develop antifungal agents” (Nature Communications, 2021).

Where “and” joins values, the source holds several entries; their conditions need not be identical. Equal entries are not always repeated. Entries after “also recorded” stand apart in the source; their conditions may differ.

For assay [1], the target named is C. neoformans Sgl1 (Cryptococcus neoformans var. grubii, UniProt J9W473). In words: Enzymatic evaluation of C. neoformans Sgl1 against the fungal glucosylceramide (LC-MS). Type of assay: biochemical. The following applies: 10 μg substrate, 10 or 50 μg Sgl1, pH 5.5, 37 °C, 4 h. The protocol: (§1) To verify the enzymatic activity of C. neoformans Sgl1 against the fungal long-chain glucosylceramide (GlcCer, OH-Δ8,9-methyl-glucosylceramide), kindly provided by Khojin (Japan). The reactions used 10 μg of substrate and 10 or 50 μg of C. neoformans Sgl1 or cerezyme (Genzyme Corporation, Cambridge, MA, USA) in 100 μL acetate buffer pH 5.5 incubated at 37 °C for 4 h[11]. The reaction was terminated by adding 300 μL of chloroform/methanol (1:1 ratio) and the lower phase was collected and dried. 9-Methyl-ceramide production was monitored by liquid chromatography-mass spectrometry (LC-MS).

The subject of assay [2] is C. neoformans H99. Type of assay: in vivo, Cryptococcus neoformans. The following applies: Hit 1 intranasally, fluconazole intraperitoneally. The protocol: For animal studies, 4-week-old CBA/J (Envigo) female mice were used. Mouse experiments were performed in full compliance with a protocol approved by Stony Brook University (IACUC number 341588) and in compliance with the United States Animal Welfare Act (Public Law 98–198). The experiments were carried out in facilities accredited by the Association for Assessment and Accreditation of Laboratory Animal Care. Mice were divided into sets of 12 mice for each treatment or control group (4 animals per cage) kept in an animal room (temperature, 22–24 °C; relative humidity, 35–45%) with artificial 12–12 h dark/light cycle. For the experiment with intraperitoneal (i.p.) treatment, mice were infected intranasally with 10 µL of a suspension containing 1 × 10^6 C. neoformans H99 cells and subsequently treated through i.p. injection with 10 mg/kg/day of hit 1 in a final volume of 100 µL of vehicle containing 10% PEG 200 in PBS. The untreated animals received 100 µL of vehicle. For the experiment with intranasal (i.n.) treatment, mice were infected with 1 × 10^5 C. neoformans H99 cells and received i.n. treatment with hit 1 in a final volume of 10 µL. Another group received treatment with 10 mg/kg/day of fluconazole i.p. and a third group received the combined treatment of hit1 by i.n. and fluconazole by i.p. Animals receiving only vehicle i.n. were used as a control group. In both experiments, three mice of each group were euthanized at day 3, 6, 9, and 14 post infection for CFU recovery from lungs and CFU recovery from brain on day 14.

Assay [3] in a line: Hydrolysis of fungal long-chain glucosylceramide by cerezyme (9-methyl-ceramide by LC-MS). The format is biochemical. The following applies: 4 h; for 9-methyl ceramide: 10 μg fungal GlcCer, 37 °C. The protocol: as §1

Sequence of C. neoformans Sgl1 (J9W473 entry or part of it): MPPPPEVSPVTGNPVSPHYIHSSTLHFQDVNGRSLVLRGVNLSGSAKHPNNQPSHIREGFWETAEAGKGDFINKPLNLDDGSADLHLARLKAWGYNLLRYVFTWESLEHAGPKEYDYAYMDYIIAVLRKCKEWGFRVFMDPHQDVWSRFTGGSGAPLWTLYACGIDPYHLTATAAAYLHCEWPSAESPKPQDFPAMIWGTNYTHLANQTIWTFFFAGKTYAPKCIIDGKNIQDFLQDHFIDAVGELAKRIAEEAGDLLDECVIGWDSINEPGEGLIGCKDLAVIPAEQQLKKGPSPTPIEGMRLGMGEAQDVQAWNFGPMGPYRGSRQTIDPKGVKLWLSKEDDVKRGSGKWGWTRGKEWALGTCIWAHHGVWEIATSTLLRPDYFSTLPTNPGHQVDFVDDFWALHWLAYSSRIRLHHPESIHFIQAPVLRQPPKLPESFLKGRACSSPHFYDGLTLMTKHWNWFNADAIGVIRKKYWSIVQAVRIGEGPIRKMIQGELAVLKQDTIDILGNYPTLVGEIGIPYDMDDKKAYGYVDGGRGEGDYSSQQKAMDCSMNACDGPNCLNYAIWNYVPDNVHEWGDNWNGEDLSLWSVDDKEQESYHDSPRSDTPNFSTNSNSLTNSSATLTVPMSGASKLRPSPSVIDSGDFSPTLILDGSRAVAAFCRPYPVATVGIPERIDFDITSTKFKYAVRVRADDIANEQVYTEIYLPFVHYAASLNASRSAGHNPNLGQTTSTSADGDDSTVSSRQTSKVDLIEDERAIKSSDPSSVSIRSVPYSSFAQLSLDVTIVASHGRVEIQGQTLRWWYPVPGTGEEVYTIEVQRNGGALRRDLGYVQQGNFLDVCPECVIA

`CCCCCCCCCCCCCCCCC(O)C(=O)NC(COC1OC(CO)C(O)C(O)C1O)C(O)C=CCCC=C(C)CCCCCCCCC` (stereo not shown) [fungal glucosylceramide, OH-Δ8,9-methyl-glucosylceramide]: in assay [1], the “hydrolysis by Sgl1” value is “unable to detect hydrolysis”.

For the molecule `OC(Cn1cncn1)(Cn1cncn1)c1ccc(F)cc1F` [Fluconazole, fluconazole, reference compound], in assay [2] (14 days of treatment), the “lung CFU compared to vehicle” value is “significant difference among CFU recovered from the lungs; also recorded: slightly reduced lung CFU”. The “brain dissemination / CFU recovered from the brain” value in assay [2] (14 days) was “did not prevent C. neoformans brain dissemination”. In assay [2] (day 6 post infection, 10 mg/kg/day each, 10 mg/kg/day), the “Lung (CFU/mL)” value is 60000 CFU/mL and 120000 CFU/mL and 92000 CFU/mL.

B1: Cerezyme: recombinant human glucosylceramidase (Genzyme Corporation) (protein, chains of the INN, looked up)
chain: ARPCIPKSFGYSSVVCVCNATYCDSFDPPTFPALGTFSRYESTRSGRRMELSMGPIQANHTGTGLLLTLQPEQKFQKVKGFGGAMTDAAALNILALSPPAQNLLLKSYFSEEGIGYNIIRVPMASCDFSIRTYTYADTPDDFQLHNFSLPEEDTKLKIPLIHRALQLAQRPVSLLASPWTSPTWLKTNGAVNGKGSLKGQPGDIYHQTWARYFVKFLDAYAEHKLQFWAVTAENEPSAGLLSGYPFQCLGFTPEHQRDFIARDLGPTLANSTHHNVRLLMLDDQRLLLPHWAKVVLTDPEAAKYVHGIAVHWYLDFLAPAKATLGETHRLFPNTMLFASEACVGSKFWEQSVRLGSWDRGMQYSHSIITNLLYHVVGWTDWNLALNPEGGPNWVRNFVDSPIIVDITKDTFYKQPMFYHLGHFSKFIPEGSQRVGLVASQKNDLDAVALMHPDGSAVVVVLNRSSKDVPLTIKDPAVGFLETISPGYSIHTYLWHRQ
Consider B1, for which the “9-methyl ceramide” value in assay [3] (Cerezyme 10 μg) is 221.543 pmol/mL and 250.417 pmol/mL and 226.634 pmol/mL and 267.483 pmol/mL; in assay [3] (Cerezyme 50 g (so in the source)), 243.428 pmol/mL and 279.737 pmol/mL and 384.828 pmol/mL and 393.256 pmol/mL. In addition, the “hydrolysis of fungal glucosylceramide” value in assay [3] (positive control, pH 5.5, 37 °C) is “readily hydrolyzed fungal glucosylceramide”.
